Measured values published in publication PMC11276849, “A Female-Biased Chemosensory Protein PxutCSP19 in the Antennae of Papilio xuthus Tuned to Host Volatiles and Insecticides” (Insects, 2024).
Like-named read-outs stand apart in the source and are kept apart here.

Assays:
[1] = target: PxutCSP19 (Papilio xuthus, UniProt A0A194QJK0); assay: Fluorescence competitive binding assay (1-NPN displacement), wildtype PxutCSP19; conditions: for inhibition at 20 µM: read-out: F.D. (fluorescent displacement rate of ligands), Wildtype (WT); for inhibition at 20 µM / F.D. (fluorescent displacement rate of ligands): ligand at 20 μM, PxutCSP19/1-NPN each 2 μM, NB = no binding
From the text: The open reading frame (ORF) of PxutCSP19 was cloned with a PrimeSTAR®® Max DNA Polymerase (TaKaRa, Liaoning, Dalian, China) and gene-specific primers containing restriction enzyme sites (BamH I and Xho I) (Table S2). The PCR products were detected on a 1.5% (w/v) agarose gel, and the expected bands were cut and purified using a HiPure Gel Pure DNA Mini Kit (Magen, Guangzhou, China). Next, BamH I and Xho I were used to digest the PxutCSP19 products and pET-30a (+) plasmids, followed by purification. A T4 DNA ligase (Thermo Fisher Scientific, Waltham, MA, USA) was applied to the construction of the recombinant plasmids pET-30a (+)/PxutCSP19. After being confirmed by sequencing, the plasmids were transformed into BL21 (DE3) competent cells so as to express recombinant proteins with 1.0 mM isopropyl β-D-thiogalactoside (IPTG). Because this recombinant protein pET-30a (+)/PxutCSP19 was insoluble, we applied a protein denaturation–renaturation approach to purify PxutCSP19 with an affinity chromatography technique, in which the denaturation buffer included 8 M urea and 1.0 mM β-mercaptoethanol.
(§1) In order to investigate the ligand-binding properties of PxutCSP19 to host odorants and insecticides, we first asked whether this fluorescent probe 1-NPN was available for the binding of PxutCSP19. To calculate the binding ability of PxutCSP19 to 1-NPN, we titrated different final concentrations of 1-NPN (2~20 μM) into Tris-HCl buffer (pH 7.4) containing 2 μM PxutCSP19. The binding constant (K1-NPN) of 1-NPN to this protein was determined with GraphPad Prism 7 (GraphPad Software Inc., San Diego, CA), as previously described. The solution was excited at 337 nm and the emission peak was monitored at 414 nm on an RF-5301PC spectrofluorometer (Shimadzu, Kyoto, Japan) using a quartz micro-cuvette filled with a 100 μL mixture, with 5 nm excitation and emission slit widths. If the host odorant molecules could displace more than 40% of the 1-NPN fluorescence from the binding cavity of PxutCSP19, the compounds would be continuously added up to 36 μM with triplicates. For the binding experiments, each compound would be added into the PxutCSP19/1-NPN (each 2 μM) complex with final concentrations of 2~20 μM. […] We used the Ki values to compare the binding affinities of various ligands with the equation: Ki = [IC50]/(1 + [1-NPN]/K1-NPN), where IC50 represents the ligand concentrations displacing one half of the initial protein/1-NPN fluorescence, and [1-NPN] is the free concentration of 1-NPN at 2 μM.

[2] = target: T1, PxutCSP19-T2 (Papilio xuthus, UniProt A0A194QJK0); assay: Fluorescence competitive binding assay (1-NPN displacement), truncated PxutCSP19-T2; conditions: for inhibition at 20 µM: T2 (35 N-terminal residues truncated), ligand at 20 μM, read-out: F.D. (fluorescent displacement rate of ligands); for Ki: Ki = [IC50]/(1 + [1-NPN]/K1-NPN)
T1 sequence (A0A194QJK0 53-142): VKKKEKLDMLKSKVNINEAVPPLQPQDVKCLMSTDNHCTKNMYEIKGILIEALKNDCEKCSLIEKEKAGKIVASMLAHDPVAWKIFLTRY
Method: as §1
(§2) To determine the effects of an extended N-terminal sequence (approximately 35 amino acids) on the binding specificity of PxutCSP19 to ligands, we next constructed two truncated PxutCSP19s. Firstly, the front 17 amino acids (i.e., EITIGGIERTMSPGVKS, defined as PxutCSP19-T1) and the front 35 amino acids (i.e., […], defined as PxutCSP19-T2) of the N-terminal region without the signal peptide were truncated, respectively. Secondly, the two truncated ORFs (PxutCSP19-T1: 360 bp and PxutCSP19-T2: 306 bp) of PxutCSP19s were separately amplified using RT–PCR with gene-specific primers (Table S2). After that, the amplified products were sub-cloned into pET-30a (+), i.e., pET-30a (+)/PxutCSP19-T1 and pET-30a (+)/PxutCSP19-T2. Using the above-described methods for the expression and purification of proteins, we obtained two truncated proteins. Furthermore, the binding characteristics of the truncated PxutCSP19s to ligands with high affinities were investigated, representing six host odorants and eight insecticides.

[3] = target: T2, PxutCSP19-T1 (Papilio xuthus, UniProt A0A194QJK0); assay: Fluorescence competitive binding assay (1-NPN displacement), truncated PxutCSP19-T1; conditions: for inhibition at 20 µM: T1 (17 N-terminal residues truncated), ligand at 20 μM, read-out: F.D. (fluorescent displacement rate of ligands); for Ki: Ki = [IC50]/(1 + [1-NPN]/K1-NPN)
T2 sequence (A0A194QJK0 35-142): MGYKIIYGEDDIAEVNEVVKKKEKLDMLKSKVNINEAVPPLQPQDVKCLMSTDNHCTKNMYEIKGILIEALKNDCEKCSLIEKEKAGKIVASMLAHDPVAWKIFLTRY
Method: as §1, §2

[4] = Wildtype (WT), ligand up to 20 μM or 36 μM, displacing half of protein/1-NPN fluorescence, read-out: IC50

PxutCSP19, sequence (A0A194QJK0 entry or part of it): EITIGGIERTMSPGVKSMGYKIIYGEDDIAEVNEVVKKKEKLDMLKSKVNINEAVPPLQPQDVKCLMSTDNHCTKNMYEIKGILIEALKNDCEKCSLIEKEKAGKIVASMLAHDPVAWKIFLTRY

| Molecule | IC50 [1] [µM] | inhibition at 20 µM [1] [%] | inhibition at 20 µM [2] [%] | Ki ([2]; T2) [µM] | IC50 ([2]; T2, read-out: IC50) [µM] | inhibition at 20 µM [3] [%] | Ki ([3]; T1) [µM] | IC50 ([3]; T1, read-out: IC50) [µM] | also measured |
| --- | --- | --- | --- | --- | --- | --- | --- | --- | --- |
| COC(=O)N(C(=O)N1CO[C@@]2(C(=O)OC)Cc3cc(Cl)ccc3C2=N1)c1ccc(OC(F)(F)F)cc1 [Indoxacarb] | 10.8 ± 0.65 | 61.5 | 62.5 | 7.98 ± 0.37 | 12.1 ± 0.56 | 59.1 | 7.08 ± 0.26 | 11.3 ± 0.41 |  |
| CCOCn1c(-c2ccc(Cl)cc2)c(C#N)c(Br)c1C(F)(F)F [Chlorfenapyr] | 10.71 ± 0.09 | 58.7 | 64.3 | 6.68 ± 0.45 | 10.1 ± 0.68 | 63.8 | 6.47 ± 0.27 | 10.3 ± 0.43 |  |
| CCOP(=S)(OCC)O/N=C(\C#N)c1ccccc1 [Phoxim] | 2.63 ± 0.12 | 87.3 | 84.8 |  |  | 83.1 |  |  | IC50 [2]: 3.16 ± 0.35 µM; IC50 [3]: 2.66 ± 0.2 µM |
| CCOP(=S)(OCC)Oc1nc(Cl)c(Cl)cc1Cl [Chlorpyrifos] | 5.52 ± 0.16 | 75.1 | 73.2 |  |  | 70.3 |  |  | IC50 [2]: 5.32 ± 0.4 µM; IC50 [3]: 5.87 ± 0.47 µM |
| O=C(NC(=O)c1c(F)cccc1F)Nc1cc(Cl)c(Oc2ncc(C(F)(F)F)cc2Cl)c(Cl)c1 [Chlorfluazuron] | 11.9 ± 1.04 | 60.5 | 57 | 8.88 ± 0.4 | 13.5 ± 0.6 | 54.7 | 7.99 ± 0.94 | 12.7 ± 1.49 |  |
| CCCCCCCCO [1-Octanol] | 34.5 ± 1.11 | > 40 | 42.7 | 22.8 ± 0.42 | 34.6 ± 0.64 | 43.5 | 21.7 ± 0.44 | 34.5 ± 0.7 |  |
| CN(C)C(CSS(=O)(=O)O)CSS(=O)(=O)O [Monosultap] |  | 53.6 | 61 | 11.8 ± 0.67 | 17.9 ± 1.02 | 54.8 | 11.1 ± 0.46 | 17.6 ± 0.73 | Ki ([1]; Wildtype (WT), Ki = [IC50]/(1 + [1-NPN]/K1-NPN)): 11.1 ± 0.66 µM; IC50 ([1]; Wildtype (WT), ligand up to 20 μM or 36 μM, displacing half of protein/1-NPN fluorescence): 16.8 ± 1.01 µM |
| COc1cc(C=O)cc(OC)c1O [Syringaldehyde] | 31 ± 0.97 | > 40 | 42.2 | 18.8 ± 0.74 | 28.6 ± 1.12 | 42.7 | 17.7 ± 0.84 | 28.1 ± 1.33 |  |
| C=C(C)[C@H]1Cc2c(ccc3c2O[C@@H]2COc4cc(OC)c(OC)cc4[C@@H]2C3=O)O1 [Rotenone] | 9.15 ± 0.76 | 67.6 | 64.4 |  |  | 61.8 |  |  | IC50 [2]: 11.3 ± 0.58 µM; IC50 [3]: 11.12 ± 0.04 µM |
| CC1=CCC(=C(C)C)CC1 [Terpinolene] | 34.1 ± 1.31 | > 40 | 38.5 | 20.8 ± 1.1 | 31.6 ± 1.67 | 40.1 | 21.14 ± 0.1 | 33.64 ± 0.16 |  |
| O=C(NC(=O)c1c(F)cccc1F)Nc1ccc(Cl)cc1 [Diflubenzuron, reference compound] | > 20 | 27 |  |  |  |  |  |  |  |
| C/C=C(\C)C(=O)O[C@H]1C[C@@H](OC(C)=O)[C@@]2(C(=O)OC)CO[C@H]3[C@@H](O)[C@@](C)([C@]45O[C@@]4(C)[C@H]4C[C@@H]5O[C@@H]5OC=C[C@@]54O)[C@H]4[C@]1(CO[C@]4(O)C(=O)OC)[C@@H]32 [Azadirachtin, reference compound] | > 20 | 34.5 |  |  |  |  |  |  |  |
| CCCCCCCC=O [Octanal] | > 20 | 22.8 |  |  |  |  |  |  |  |
| OCCc1ccccc1 [Phenethyl alcohol] | > 20 | 39.7 |  |  |  |  |  |  |  |
| C/C1=C\CC/C(C)=C/CC(C)(C)/C=C/C1 [α-Caryophyllene] |  |  |  |  |  |  |  |  | F.D. (fluorescent displacement rate of ligands) ([1]; Wildtype (WT)): 7.48%; IC50 [1, 4]: > 20 µM |
| COP(=O)(NC(C)=O)SC (stereo not shown) [Acephate, reference compound] | > 20 | 37.1 |  |  |  |  |  |  |  |
| CC(C)=CCC/C(C)=C\CO [Nerol] | 34 ± 1.46 | > 40 | 40.8 | 22.2 ± 0.56 | 33.8 ± 0.85 | 39.4 | 21.84 ± 0.02 | 34.75 ± 0.03 |  |
| CCC/C=C/C=O [(E)-2-Hexenal] | > 20 | 33.8 |  |  |  |  |  |  |  |
| C=C1CCC2(C(C)C)CC12 (stereo not shown) [Sabinene] | > 20 | 33.5 |  |  |  |  |  |  |  |
| CC1=CCC2C(C1)C2(C)C (stereo not shown) [3-Carene] | > 20 | 35.1 |  |  |  |  |  |  |  |
| O=C(NC(=O)c1ccccc1Cl)Nc1ccc(OC(F)(F)F)cc1 [Triflumuron, reference compound] | > 20 | 28 |  |  |  |  |  |  |  |
| Emamectin benzoate [reference compound] |  |  |  |  |  |  |  |  | F.D. (fluorescent displacement rate of ligands) ([1]; Wildtype (WT)): 46.98%; IC50 [1, 4]: > 20 µM |
| CC(C)=CCC/C(C)=C/CO [Geraniol] |  | 39 |  |  |  |  |  |  |  |
| CC(=O)OC/C=C(\C)CCC=C(C)C [Geranyl acetate] | > 20 | 33.3 |  |  |  |  |  |  |  |
| CCCCCCCCCCC=O [Undecanal] | > 20 | 27.7 |  |  |  |  |  |  |  |
| O=C1CCC[C@@H]2[C@H]3CCCN4CCC[C@@H](CN12)[C@@H]34 [Matrine, reference compound] | > 20 | 40 |  |  |  |  |  |  |  |
